From US20160228586A1, “Compounds and Their Use for Preparation of Tau Imaging Agents and Tau Imaging Formulations” (ELI LILLY AND COMPANY, priority 2013, published 2016)

How the values were obtained:
native tau aggregates = test: Film autoradiography of AD brain tissue sections; type: binding, human
Description: Film autoradiography of AD Brain Tissue Sections are performed in a manner consistent with previously published methods (See Zhang, W., et al. F-18 stilbenes as PET imaging agents for detecting beta-amyloid plaques in the brain. Journal of Medicinal Chemistry, 48: 5980-5988, 2005, Zhang, W., et al. F-18 stilbenes as PET imaging agents for amyloid plaque imaging. Nucl Med Biol. 2007 34(1):89-97.)
Postmortem AD diagnosed human brain sections (frontal lobe, 10 um) are covered with 0.5 ml of [^18F]T807 (in 2.5:2.5:95=DMSO:ethanol:1X-phospate buffered saline (PBS), about 20 uCi of [^18F]T807 per slide, and incubated for 60 minutes at room temperature. Then successive washing cycles are employed with 2 minutes of 1× PBS, 2 minutes of 30% ethanol/1× PBS, 2 minutes of 70% ethanol/1× PBS, and 2 minutes 1× PBS, to remove any unbound tracer. After drying under a fume hood, the sections are put on a FujiFilm radio-sensor cassette and exposed over night. The autoradiography signal is recorded in the radio-sensor sheet and is read/visualized with the FujiFilm Bio-Imaging System FLA-7000. Autoradiographic visualization of tau is observed in gray matter of postmortem AD brain tissue. See FIG. 2 which illustrates [^18F]T807 labeling of tau in post-mortem frontal lobe sections (10 um) of tau-positive human brain tissue from patients with AD, approximately 20 uCi of [^18F]T807 per slide. Strong autoradiography signal of [^18F]T807 is observed on the grey matter (GM) region, and the presence of tau in these regions are confirmed by tau-immunostaining. The non-specific or background [^18F]T807 signal is shown in the white matter region (WM) and is low.

PHF-tau = settings: cited from Alzheimer's & Dementia 2013; cited from earlier work
[1] = Solubility of precursor in DMSO; type: physicochemical; settings: no sonication or heating required
From the text: The solubility of the precursor compound affects the ability of the compound to get into solution so that a reaction to produce [^18F]T807 can effectively occur.

Fc1ccc(-c2ccc3c(c2)[nH]c2ccncc23)cn1 [Example T807, 7-(6-fluoro-3-pyridyl)-5H-pyrido[4,3-b]indole, reference compound]
blocking of the [18F]T807 autoradiography signal (specificity for native tau aggregates) (native tau aggregates; 1 uM of cold T807, human AD brain sections): blocking effect

[18F]c1ccc(-c2ccc3c(c2)[nH]c2ccncc23)cn1 [[^18F]T807, 7-(6-[^18F]fluoro-3-pyridyl)-5H-pyrido[4,3-b]indole]
affinity and selectivity to PHF-tau (PHF-tau): high
non-specific or background signal in the white matter region (WM) (native tau aggregates; post-mortem frontal lobe sections (10 um) of tau-positive human AD brain, about 20 uCi per slide): low
autoradiography signal on the grey matter (GM) region (native tau aggregates; post-mortem frontal lobe sections (10 um) of tau-positive human AD brain, about 20 uCi per slide, 60 minutes at room temperature): Strong

CC(C)(C)OC(=O)n1c2ccncc2c2ccc(-c3ccc([N+](C)(C)C)nc3)cc21.Cc1ccc(S(=O)(=O)[O-])cc1 [formula Ia, 5-(5-(tert-butoxycarbonyl)-5H-pyrido[4,3-b]indol-7-yl)-N,N,N-trimethylpyridin-2-aminium 4-methylbenzenesulfonate]
solubility in DMSO [1]: readily soluble
